From ChEMBL document CHEMBL5441456, “ASAP - SARS-CoV-2 nsp3 macrodomain dose response” (2024)
“And” between values parts separate entries of the source, which are not always exact repeats. Equal entries are not always repeated.

Target: Replicase polyprotein 1ab (Severe acute respiratory syndrome coronavirus 2, UniProt P0DTD1)
Experiment: Functional biochemical assay to identify treatments for viral infectious disease that targets SARS-COV-2 nsp3 macrodomain, whereby the mechanism of action displaces an ADP-Ribose modified peptide from the binding site. Utilizing a time-resolved fluorescence method to measure binding by reading the emitted fluorescence intensity in two wavelengths.

Row | Structure (SMILES) | IC50
1 | CC(C)[C@@H](Nc1ncnc2[nH]c(-c3cnn(C4(C(N)=O)CC4)c3)cc12)c1ccc2c(c1)OCCO2 | 1040 nM and 1380 nM and 1310 nM
2 | CCn1cc(-c2cc3c(N[C@@H](c4ccc5c(c4)OCCO5)C(C)C)ncnc3[nH]2)cn1 | 626 nM and 652 nM
3 | Cn1c(C(=O)O)c(NC(=O)c2ccc(NC(=O)NC3CC3)cc2)c2cccnc21 | > 99500 nM
4 | CCC[C@@H](Nc1ncnc2[nH]ccc12)C(=O)O | > 99500 nM
5 | CCNC(=O)c1cc2c(N[C@H](c3ccc4c(c3)NS(=O)(=O)CO4)C(C)C)ncnc2[nH]1 | 29 nM and 38 nM and 37 nM
6 | CC(C)[C@@H](Nc1ncnc2[nH]c(-c3ccnn3C3CCC3)cc12)c1ccc2c(c1)OCCO2 | 5590 nM and 8760 nM
7 | Cn1ncc2c(C(=O)N[C@@H](CC(=O)O)c3ccc(Br)cc3)ccnc21 | 70200 nM and 81700 nM
8 | CC(C)[C@@H](Nc1ccnc2[nH]ncc12)c1ccc2c(c1)S(=O)(=O)CCC2 | > 99500 nM
9 | CC(C)[C@H](Nc1cc(-n2cncn2)ncn1)c1ccc2c(c1)S(=O)(=O)CCC2 | > 99500 nM
10 | COc1ccc([C@@H](Cc2nn[nH]n2)NC(=O)c2nc(OC)nc3[nH]ccc23)cc1 | 4550 nM and 4970 nM
11 | O=C(N[C@H]1CCC[C@H]1C(=O)O)c1cnn2ccc(C3CCN(C(=O)c4ccccc4)CC3)cc12 | 35800 nM
12 | COc1ccc([C@@H](Cc2nn[nH]n2)NC(=O)c2nc(C)nc3[nH]ccc23)cc1 | 1840 nM and 1650 nM
13 | CC(C)[C@@H](Nc1ncnc2[nH]c(C(=O)NCC(C)(C)C#N)cc12)c1ccc2c(c1)OCCO2 | 2100 nM and 4220 nM
14 | CC(C)[C@@H](Nc1ncnc2[nH]c(-c3ccn4cnnc4c3)cc12)c1ccc2c(c1)S(=O)(=O)CCC2 | 93 nM and 73 nM and 126 nM
15 | O=C(N[C@@H](Cc1nn[nH]n1)c1ccc(Br)cc1)c1ncnc2[nH]ccc12 | 1920 nM and 2110 nM
16 | CC(C)[C@@H](Nc1ncnc2[nH]c(-c3cn[nH]c3)cc12)c1ccc2c(c1)S(=O)(=O)CCC2 | 63 nM and 52 nM and 85 nM and 58 nM and 60 nM
17 | COc1cccc(CSC[C@@H](NC(=O)c2ncnc3[nH]ccc23)C(=O)O)c1 | > 99500 nM
18 | CC(C)[C@H](Nc1ncnc2n[nH]cc12)c1ccc2c(c1)S(=O)(=O)CCC2 | 1560 nM and 770 nM
19 | C[C@@H]1Oc2ccc(Nc3ncnc4[nH]ccc34)cc2NC1=O | > 99500 nM
20 | CC(C)[C@@H](Nc1ncnc2[nH]c(-c3cncc(S(C)(=O)=O)c3)cc12)c1ccc2c(c1)S(=O)(=O)CCC2 | 39 nM and 79 nM and 57 nM and 143 nM
21 | CC(C)[C@H](Nc1ncncc1N1CCNCC1)c1ccc2c(c1)S(=O)(=O)CCC2 | > 99500 nM
22 | CC(C)[C@@H](Nc1ncnc2[nH]c(C(=O)NCC3(C#N)CC3)cc12)c1ccc2c(c1)OCCO2 | 1090 nM and 2640 nM
23 | CC(C)[C@@H](Nc1ncnc2[nH]c(-c3cccc(CN4CCS(=O)(=O)CC4)c3)cc12)c1ccc2c(c1)OCCO2 | 3250 nM and 3450 nM and 3570 nM

Row | Structure (SMILES) | IC50
24 | CNc1ccc([C@@H](CC(=O)O)NC(=O)c2ncnc3[nH]ccc23)cc1 | 28900 nM and 34600 nM
25 | CC(C)[C@@H](Nc1ncnc2[nH]c(-c3cnc4c(c3)nnn4C)cc12)c1ccc2c(c1)S(=O)(=O)CCC2 | 241 nM and 131 nM and 349 nM
26 | O=C(O)C[C@@H](NC(=O)c1ncnc2[nH]ccc12)c1ccc(NCc2ccno2)cc1 | 11300 nM and 13100 nM
27 | Cn1ncc2c(N[C@@H](c3ccc4c(c3)OCCO4)C3CC3)ncnc21 | > 99500 nM
28 | Cc1[nH]c2ncnc(NC(=O)c3ncn(-c4ccccc4)n3)c2c1C | > 99500 nM
29 | CCNC(=O)c1cc2c(N[C@@H](CC(=O)Nc3cnn(C(C)C)c3)C(C)C)ncnc2[nH]1 | 27700 nM and 23500 nM
30 | CC(=O)c1ccc(-c2cc3c(N[C@@H](c4ccc5c(c4)OCCO5)C(C)C)ncnc3[nH]2)o1 | 1510 nM and 1450 nM
31 | CC(C)[C@@H](Nc1ncnc2[nH]c(C(=O)NCc3ccno3)cc12)c1ccc2c(c1)OCCO2 | 792 nM and 829 nM
32 | Cc1[nH]c2ncnc(NC(=O)c3cnc(Cl)cn3)c2c1C | > 99500 nM
33 | O=C(O)C[C@@H](NC(=O)c1ccc(NC(=O)NC2CC2)cc1)c1cccnc1 | 77100 nM and 68200 nM
34 | Cc1cc(-c2cc3c(N[C@@H](c4ccc5c(c4)OCCO5)C(C)C)ncnc3[nH]2)c[nH]1 | 9530 nM and 10200 nM
35 | CC(C)[C@@H](Nc1ncnc2[nH]c(-c3ccnn3C(C)C)cc12)c1ccc2c(c1)OCCO2 | 3020 nM and 2940 nM
36 | CC(C)[C@@H](Nc1ncnc2[nH]c(-c3cnn(C4CC4)c3)cc12)c1ccc2c(c1)OCCO2 | 998 nM and 1230 nM and 1120 nM
37 | CNC(=O)c1cc2c(N[C@H](c3ccc4c(c3)S(=O)(=O)CCC4)C(C)C)ncnc2[nH]1 | 1790 nM
38 | Cc1n[nH]nc1C(=O)N1CCC(c2ccn3ncc(C(=O)N4CCCCC4)c3c2)CC1 | > 99500 nM
39 | O[C@H]1CCCC[C@@H]1Nc1ncnc2[nH]ccc12 | 55400 nM and 64700 nM
40 | Cc1nn(C)cc1-c1cc2c(N[C@@H](c3ccc4c(c3)S(=O)(=O)CCC4)C(C)C)ncnc2[nH]1 | 36800 nM and 10800 nM
41 | Cc1ncc(-c2cc3c(N[C@@H](c4ccc5c(c4)OCCO5)C(C)C)ncnc3[nH]2)o1 | 1160 nM and 1350 nM and 1400 nM
42 | CC(C)[C@@H](c1ccc2c(c1)OCCO2)N(C)c1ncnc2[nH]c(-c3cnn(CC(N)=O)c3)cc12 | 20100 nM
43 | COc1ccc([C@@H]2CN(C(=O)c3ncnc4[nH]ccc34)C[C@H]2C(=O)O)cc1 | > 99500 nM
44 | Cc1nnc(Nc2ccc(C(=O)N[C@@H]3c4cccc(O)c4C[C@H]3C(=O)O)cc2)o1 | 25300 nM and 26000 nM
45 | O=C(c1cccc(Br)c1)N1CCC(c2ccn3ncc(C(=O)N4CCCCC4)c3c2)CC1 | > 124000 nM
46 | CC(C)[C@@H](Nc1ncnc2[nH]c(-c3cnn(CC4(C#N)CC4)c3)cc12)c1ccc2c(c1)OCCO2 | 421 nM and 446 nM

Row | Structure (SMILES) | IC50
47 | CC(=O)Nc1ccc(S(=O)(=O)NNc2ncnc3sccc23)cc1 | > 99500 nM
48 | O=C1NCCc2ccc(CNc3ncnc4[nH]ccc34)cc21 | > 99500 nM
49 | CC(C)[C@@H](Nc1ncnc2[nH]c(-c3cnn(C4CCC4)n3)cc12)c1ccc2c(c1)OCCO2 | 3840 nM and 3920 nM
50 | CC(=O)N1CCN(Cc2cccc(-c3cc4c(N[C@@H](c5ccc6c(c5)S(=O)(=O)CCC6)C(C)C)ncnc4[nH]3)c2)CC1 | 258 nM and 186 nM and 325 nM
51 | CC(C)[C@@H](Nc1ncnc2[nH]c(C(=O)NCc3cnco3)cc12)c1ccc2c(c1)OCCO2 | 639 nM and 1760 nM
52 | CC(C)[C@@H](Nc1ncnc2[nH]c(-c3cnc(C#N)nc3)cc12)c1ccc2c(c1)OCCO2 | 2520 nM and 2510 nM
53 | CC(=O)c1ccc(-c2cc3c(N[C@@H](c4ccc5c(c4)OCCO5)C(C)C)ncnc3[nH]2)[nH]1 | 2970 nM and 3240 nM
54 | CC(C)[C@@H](Nc1ncnc2[nH]c(-c3ccnn3CC3CC3)cc12)c1ccc2c(c1)OCCO2 | 4220 nM and 3900 nM
55 | c1nc(N[C@@H](c2ccc3c(c2)OCCO3)C2CCC2)c2cc[nH]c2n1 | 5200 nM and 6520 nM
56 | CC(C)[C@H](Nc1ncnc2c1NCCO2)c1ccc2c(c1)S(=O)(=O)CCC2 | > 99500 nM
57 | CC(C)[C@@H](CO)NC(=O)c1c[nH]c2c(NC(=O)NC3CC3)cccc12 | > 99500 nM
58 | CC(C)[C@H](Nc1ncnc(N2CCCC2)n1)c1ccc2c(c1)S(=O)(=O)CCC2 | > 99500 nM
59 | CC(C)[C@@H](Nc1ncnc2[nH]c(-c3cnn(C(C)C)n3)cc12)c1ccc2c(c1)OCCO2 | 1700 nM and 2130 nM
60 | CC(C)[C@@H](Nc1cc(-n2nccn2)ncn1)c1ccc2c(c1)S(=O)(=O)CCC2 | > 99500 nM
61 | CC(C)[C@@H](Nc1ncnc2[nH]c(C(=O)NCCC(F)F)cc12)c1ccc2c(c1)OCCO2 | 837 nM and 1340 nM
62 | COC[C@@H]1C[C@@H]1CNc1ccc([C@@H](CC(=O)O)NC(=O)c2c[nH]c3ncncc23)cc1 | > 99500 nM
63 | CC(C)[C@@H](Nc1ncnc2[nH]c(-c3cnc(C4CC4)o3)cc12)c1ccc2c(c1)OCCO2 | 3280 nM and 3760 nM
64 | CC(C)[C@@H](Nc1ncnc2[nH]c(C3=CCCN(C(=O)OCc4ccccc4)C3)cc12)c1ccc2c(c1)OCCO2 | > 99500 nM
65 | CC(C)[C@H](Nc1ncnc2c1CCN2)c1ccc2c(c1)S(=O)(=O)CCC2 | 52100 nM
66 | CC(C)[C@@H]1C(=O)NCCN1c1ncnc2[nH]ccc12 | 35300 nM
67 | CC(C)[C@H](Nc1ncnc2[nH]c(-c3cnn(CC(N)=O)c3)cc12)c1ccc2c(c1)OCCO2 | 90000 nM and 93500 nM
68 | CO[C@H]1C[C@@H](C(=O)O)N(c2ncnc3[nH]ccc23)C1 | 79400 nM and 83600 nM
69 | O=C(Nc1ncnc2c(C(=O)NC3(c4ccccc4F)CCCCC3)csc12)NC1CC1 | > 99500 nM

Row | Structure (SMILES) | IC50
70 | Cc1n[nH]c(C)c1-c1cc2c(N[C@@H](c3ccc4c(c3)S(=O)(=O)CCC4)C(C)C)ncnc2[nH]1 | 456 nM and 272 nM and 503 nM
71 | CC(C)[C@H](Nc1ncnc2c1OCCO2)c1ccc2c(c1)S(=O)(=O)CCC2 | 38400 nM
72 | CC(C)[C@@H](Nc1ncnc2[nH]c(C(=O)NC3CN(C)C3)cc12)c1ccc2c(c1)S(=O)(=O)CCC2 | 189 nM
73 | O=C(O)c1sccc1C(=O)N1CCC(c2ccn3ncc(C(=O)N4CCCCC4)c3c2)CC1 | 38000 nM
74 | CC(C)[C@H](Nc1ncnc2ccoc12)c1ccc2c(c1)S(=O)(=O)CCC2 | > 99500 nM
75 | CC(C)[C@@H]1C[C@@H](Nc2ncnc3[nH]ccc23)CCO1 | > 99500 nM
76 | CC(C)[C@@H](Nc1ncnc2[nH]ccc12)c1ccc2c(n1)NC(=O)CO2 | 2610 nM and 2710 nM
77 | O=C(N[C@@H](Cc1ccc(Br)cc1)C(=O)O)c1ncnc2[nH]ccc12 | > 99500 nM
78 | Cc1cc(-c2cc3c(N[C@@H](c4ccc5c(c4)OCCO5)C(C)C)ncnc3[nH]2)nn1C | 2790 nM and 1620 nM
79 | Cc1ncnc2c1C[C@@H](C(=O)N(C)CC[C@@H](Nc1ncnc3[nH]ccc13)C(C)C)CC2 | > 99500 nM
80 | CC(C)[C@H](Nc1ncncc1-n1nccn1)c1ccc2c(c1)S(=O)(=O)CCC2 | > 99500 nM
81 | CC(C)[C@@H](Nc1ncnc2[nH]c(C(=O)Nc3cnccc3O)cc12)c1ccc2c(c1)OCCO2 | 9980 nM and 17900 nM
82 | CC(C)[C@@H](Nc1ncnc2[nH]c(-c3cnn(C)c3)cc12)c1ccc2c(c1)OCCO2 | 538 nM and 616 nM and 618 nM
83 | O=C(Nc1ccc(C(=O)Nc2c(C(=O)O)sc3ncccc23)cc1)NC1CC1 | > 99500 nM
84 | CC(C)[C@@H](Nc1ncnc2[nH]c(-c3ccc(S(N)(=O)=O)c4nsnc34)cc12)c1ccc2c(c1)S(=O)(=O)CCC2 | 242 nM
85 | CC(C)[C@H]1N(c2ncnc3[nH]ccc23)CC12CCOCC2 | > 99500 nM
86 | c1nc(N2CCC[C@@H](Nc3ccc4c(c3)OCCO4)C2)c2cc[nH]c2n1 | > 99500 nM
87 | c1ccc2c(N[C@@H](c3ccc4c(c3)OCCO4)C3CC3)ncnc2c1 | > 99500 nM
88 | CC(C)[C@H](Oc1cc(N)ncn1)c1ccc2c(c1)S(=O)(=O)CCC2 | 59800 nM
89 | CC(C)[C@@H](Nc1c(N)cnc2[nH]ccc12)c1ccc2c(c1)S(=O)(=O)CCC2 | > 99500 nM
90 | CNc1cccc([C@@H](CC(=O)O)NC(=O)c2ncnc3[nH]ccc23)c1 | 66300 nM and 25700 nM
91 | CC(C)[C@@H](c1ccc2c(c1)S(=O)(=O)CCC2)n1c(=O)[nH]c2c(N)ccnc21 | > 99500 nM
92 | Cc1[nH]c2ncnc(NC(=O)[C@@H]3Cc4ccccc4CO3)c2c1C | > 99500 nM
